Results taken from patent publication US11850234B2, “Enhancement of cancer treatment efficiency via the sphingosine-1-phosphate pathway” (priority 2017, dated 2023).

Key:
[1] = system: breast cancer metastatic cell line; details: 10 μM of S1P co-administered; cited from earlier work
[2] = system: CAM-grafted pancreas, lung and ovarian tumors; assay: Neoadjuvant effect in the CAM (Chicken Chorioallantoic Model) with grafted tumors; assay type: in vivo; details: compared to CAM-grafted tumors not previously treated with the neoadjuvants
Protocol: The neoadjuvant effect of benzylphthalazine and imidazole derivatives according to the present invention are assessed for their neoadjuvant effect against pancreas, lung and ovarian tumors.
The neoadjuvant effect is evaluated using the CAM (Chicken Chorioallantoic Model) as described by Sliwinska et al. (Sliwinska et al., Angiogenesis, 2014, 14(4), 779-804).

[3] = system: pancreatic adenocarcinoma; assay: Overall survival of pancreatic adenocarcinoma patients under gemcitabine chemotherapy, by plasmatic S1P concentration; assay type: in vivo, human

| SMILES | effect on cytotoxicity of docetaxel, doxorubicin and cyclophosphamide [1] | cytotoxic effect against CAM-grafted tumors pretreated with neoadjuvant [2] | overall survival median ([3]; conventional gemcitabine chemotherapy, plasmatic S1P higher than 650 nM versus lower, FIG. 3) | overall survival ([3]; patients having a high plasmatic S1P concentration (>650 nM), FIG. 5) [months] |
| --- | --- | --- | --- | --- |
| CCCCCCCCCCCCC/C=C/[C@@H](O)[C@@H](N)COP(=O)(O)O [S1P, Sphingosine-1-phosphate] | increased the cytotoxicity | – | – | – |
| Nc1ccn([C@@H]2O[C@H](CO)[C@@H](O)C2(F)F)c(=O)n1 [gemcitabine] | – | enhanced | better overall survival median | 12.3 |
| CC(=O)O[C@H]1C(=O)[C@@]2(C)[C@H]([C@H](OC(=O)c3ccccc3)[C@]3(O)C[C@H](OC(=O)[C@H](O)[C@@H](NC(=O)c4ccccc4)c4ccccc4)C(C)=C1C3(C)C)[C@]1(OC(C)=O)CO[C@@H]1C[C@@H]2O [paclitaxel] | – | enhanced | – | – |
